# Source: ChEMBL document CHEMBL1201862, “PubChem BioAssay data set” (2004)
# Activity calls are given as the source filed them. No stated cut-off is given here; in the data, actives have a measured IC50 and inactives only a lower limit.
# Target: Envelope glycoprotein gp160 (Human immunodeficiency virus 1, UniProt Q6QLK5)
# Assay: cell-free HIV fusion peptide-binding blockers – biochemical, uHTS, fluorescence dequenching, […] (AID 1986)
# Sequence of Envelope glycoprotein gp160 (Q6QLK5 whole entry, the tested form may be a part): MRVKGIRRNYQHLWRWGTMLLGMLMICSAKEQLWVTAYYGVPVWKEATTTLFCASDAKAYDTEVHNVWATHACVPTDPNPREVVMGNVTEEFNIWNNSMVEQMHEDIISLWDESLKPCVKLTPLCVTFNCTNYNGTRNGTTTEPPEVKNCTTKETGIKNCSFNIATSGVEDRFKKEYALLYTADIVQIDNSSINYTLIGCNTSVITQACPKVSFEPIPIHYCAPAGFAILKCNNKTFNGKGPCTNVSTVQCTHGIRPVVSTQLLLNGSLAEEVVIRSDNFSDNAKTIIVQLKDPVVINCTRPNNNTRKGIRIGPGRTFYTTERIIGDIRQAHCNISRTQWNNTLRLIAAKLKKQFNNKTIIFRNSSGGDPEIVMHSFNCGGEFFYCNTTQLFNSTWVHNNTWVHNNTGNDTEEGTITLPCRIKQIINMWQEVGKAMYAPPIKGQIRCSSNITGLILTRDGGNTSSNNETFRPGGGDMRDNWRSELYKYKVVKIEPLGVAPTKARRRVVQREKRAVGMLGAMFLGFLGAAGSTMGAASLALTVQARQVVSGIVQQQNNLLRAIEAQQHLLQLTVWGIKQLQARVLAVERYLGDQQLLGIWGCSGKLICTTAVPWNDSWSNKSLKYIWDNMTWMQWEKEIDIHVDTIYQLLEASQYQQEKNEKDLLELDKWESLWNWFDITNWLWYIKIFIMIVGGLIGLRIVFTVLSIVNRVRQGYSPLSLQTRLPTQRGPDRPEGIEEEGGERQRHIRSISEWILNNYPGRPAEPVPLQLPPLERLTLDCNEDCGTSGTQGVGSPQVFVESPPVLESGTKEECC
row,Compound,IC50
1,CSc1nc(SCC(=O)O)c2sc3nc(-c4ccccc4)c4c(c3c2n1)CCC4,16.2 µM (active)
2,O=C1NN(c2ccc(F)c(Cl)c2)C(=O)/C1=C\c1cccc(OC(=O)c2cccs2)c1,7.72 µM (active)
3,O=C(O)Cn1cc(/C=c2/sc3nc4ccccc4n3c2=O)c2ccccc21,68.9 µM (active)
